# Measurements reported in article PMC10184127 (Journal of Medicinal Chemistry, 2023).
# Tests used:
# AgAChE1 = AgAChE1 (Anopheles gambiae, UniProt Q869C3)
# [1] = at higher concentrations
# hAChE = hAChE (Homo sapiens, UniProt P22303)
# Sequence of hAChE (P22303 32-614): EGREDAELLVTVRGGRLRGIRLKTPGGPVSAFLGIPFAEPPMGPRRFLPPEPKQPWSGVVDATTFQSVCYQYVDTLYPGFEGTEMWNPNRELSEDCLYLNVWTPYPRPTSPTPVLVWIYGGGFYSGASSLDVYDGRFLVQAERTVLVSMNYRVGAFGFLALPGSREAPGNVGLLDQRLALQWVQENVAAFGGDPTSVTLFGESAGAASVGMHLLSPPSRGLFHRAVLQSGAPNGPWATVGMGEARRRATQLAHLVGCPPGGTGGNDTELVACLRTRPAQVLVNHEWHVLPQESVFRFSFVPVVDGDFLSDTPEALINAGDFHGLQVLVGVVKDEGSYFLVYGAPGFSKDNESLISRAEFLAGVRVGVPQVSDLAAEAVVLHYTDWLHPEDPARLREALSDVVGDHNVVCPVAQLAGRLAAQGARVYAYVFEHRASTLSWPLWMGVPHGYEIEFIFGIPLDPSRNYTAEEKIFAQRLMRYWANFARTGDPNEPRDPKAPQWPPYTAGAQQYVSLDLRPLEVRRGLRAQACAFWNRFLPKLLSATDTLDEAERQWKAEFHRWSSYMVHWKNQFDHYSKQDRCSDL
# Sequence of AgAChE1 (Q869C3 39-737): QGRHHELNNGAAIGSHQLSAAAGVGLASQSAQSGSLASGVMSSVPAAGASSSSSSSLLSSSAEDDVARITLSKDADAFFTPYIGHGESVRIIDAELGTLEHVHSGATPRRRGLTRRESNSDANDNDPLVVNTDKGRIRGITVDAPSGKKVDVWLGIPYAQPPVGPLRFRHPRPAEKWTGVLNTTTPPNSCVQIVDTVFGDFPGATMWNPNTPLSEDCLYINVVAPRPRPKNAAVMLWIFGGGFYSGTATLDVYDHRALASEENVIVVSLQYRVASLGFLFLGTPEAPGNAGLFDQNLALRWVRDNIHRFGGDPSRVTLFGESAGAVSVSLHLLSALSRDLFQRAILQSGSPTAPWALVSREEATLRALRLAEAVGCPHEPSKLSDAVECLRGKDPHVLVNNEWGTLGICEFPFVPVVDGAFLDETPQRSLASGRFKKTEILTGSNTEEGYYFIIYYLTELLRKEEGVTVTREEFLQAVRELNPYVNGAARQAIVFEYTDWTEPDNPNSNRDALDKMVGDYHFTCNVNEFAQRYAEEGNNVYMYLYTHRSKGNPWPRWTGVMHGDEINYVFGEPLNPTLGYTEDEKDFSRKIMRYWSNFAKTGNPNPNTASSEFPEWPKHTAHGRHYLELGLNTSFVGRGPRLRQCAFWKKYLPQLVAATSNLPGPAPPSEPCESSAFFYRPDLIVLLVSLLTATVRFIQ
compound,measurement,setting,value
"O=C1CSC(c2ccccc2)N1CCc1ccc(F)cc1 (stereo not drawn) [compound 9, 3-(4-Fluorophenethyl)-2-phenylthiazolidin-4-one]",IC50 (μM) AgAChE1,AgAChE1,Inactive
same,inhibitory activity towards AgAChE1,AgAChE1,no detectable inhibitory activity
"CNCCN1C(=O)CSC1c1cccc2ccccc12.Cl (stereo not drawn) [compound 54, N-Methyl-2-(2-(naphthalen-1-yl)-4-oxothiazolidin-3-yl)ethan-1-aminium Chloride]",times weaker binders than their tertiary amine analogues,AgAChE1,over 10 times
"CN(C)CCCN1C(=O)CSC1c1cccc2ccccc12.Cl (stereo not drawn) [compound 36, 3-(3-(Dimethylamino)propyl)-2-(naphthalen-1-yl)thiazolidin-4-one Hydrochloride]",solubility,[1],reduced its solubility at higher concentrations
"Cl.O=C1CSC(c2ccc(F)cc2)N1CCNC1CC1 (stereo not drawn) [compound 49, 3-(2-(Cyclopropylamino)ethyl)-2-(4-fluorophenyl)thiazolidin-4-one Hydrochloride]",loss of potency vs 3-carbon chain dimethylamine analogue,AgAChE1,13 fold
"[N-]=[N+]=NCCCN1C(=O)CSC1c1ccccc1 (stereo not drawn) [compound 17, 3-(3-Azidopropyl)-2-phenylthiazolidin-4-one]",IC50 (μM) AgAChE1,AgAChE1,Inactive
same,inhibitory activity towards AgAChE1,AgAChE1,no detectable inhibitory activity
"CN(C)CCN1C(=O)CSC1c1ccc(F)cc1.Cl (stereo not drawn) [compound 37, 3-(2-(Dimethylamino)ethyl)-2-(4-fluorophenyl)thiazolidin-4-one Hydrochloride]",activity against hAChE,hAChE,inactive
"CC(C)NCCN1C(=O)CSC1c1cccc2ccccc12.Cl (stereo not drawn) [compound 43, 3-(2-(Isopropylamino)ethyl)-2-(naphthalen-1-yl)thiazolidin-4-one Hydrochloride]",times weaker binders than their tertiary amine analogues,AgAChE1,over 10 times
"CN(C)CCN1C(=O)CSC1c1cccc2ccccc12.Cl (stereo not drawn) [compound 40, 3-(2-(Dimethylamino)ethyl)-2-(naphthalen-1-yl)thiazolidin-4-one Hydrochloride]",activity against hAChE,hAChE,inactive
"CN(C)CCN1C(=O)CSC1c1ccc(Cl)cc1Cl.Cl (stereo not drawn) [compound 38, 2-(2,4-Dichlorophenyl)-3-(2-(dimethylamino)ethyl)thiazolidin-4-one Hydrochloride]",activity against hAChE,hAChE,inactive
"CN(C)CCN1C(=O)CSC1c1cccc(F)c1F.Cl (stereo not drawn) [compound 39, 2-(2,3-Difluorophenyl)-3-(2-(dimethylamino)ethyl)thiazolidin-4-one Hydrochloride]",activity against hAChE,hAChE,inactive
